In patent publication US20250257034A1, “INDOLE DERIVATIVES AS SEROTONERGIC AGENTS USEFUL FOR THE TREATMENT OF DISORDERS RELATED THERETO” (priority 2023, published 2025):
pEC50, pIC50: −log10 of the molar value. Read-outs that look alike come from different tables or passages of the source.

Tests used:
human 5-HT2A receptor [1] = molecular target: T1, human 5-HT2A receptor (Homo sapiens, UniProt P28223); experiment: Human 5-HT2A functional FLIPR assay (agonist mode); format: cell-based; parameters: expressed in transfected cells; host or cells: HTR2A&Gα15-HEK293 (tetracycline induction)
T1 sequence (P28223 whole entry): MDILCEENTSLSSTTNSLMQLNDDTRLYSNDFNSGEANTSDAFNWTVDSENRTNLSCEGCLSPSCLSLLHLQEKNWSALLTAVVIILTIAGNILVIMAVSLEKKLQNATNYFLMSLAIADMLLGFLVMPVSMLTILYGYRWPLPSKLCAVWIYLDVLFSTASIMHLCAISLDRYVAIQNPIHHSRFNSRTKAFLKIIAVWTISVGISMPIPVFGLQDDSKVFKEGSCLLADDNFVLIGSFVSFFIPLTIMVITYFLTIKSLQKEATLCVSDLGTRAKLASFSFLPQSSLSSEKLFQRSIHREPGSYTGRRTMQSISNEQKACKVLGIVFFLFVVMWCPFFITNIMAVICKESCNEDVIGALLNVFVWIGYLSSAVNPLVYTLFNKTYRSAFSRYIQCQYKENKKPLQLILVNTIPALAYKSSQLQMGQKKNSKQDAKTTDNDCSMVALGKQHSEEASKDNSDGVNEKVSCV
Experimental: The potential excitatory effects of compounds targeting on human 5-hydroxytryptamine receptor 2A (5-HT2A) under agonist mode was assessed.
HTR2A&Gα15-HEK293 cells were cultured in DMEM medium containing 10% dialyzed FBS and 1×penicillin-streptomycin, 100 μg/mL Hygromycin B and 300 μg/mL G418. The cells were passaged about three times a week, maintained between ˜30% to ˜90% confluence.
1. The cell culture medium (DMEM medium containing 10% dialyzed FBS and 1×penicillin-streptomycin, 100 μg/mL Hygromycin B and 300 μg/mL G418), TrypLE™ Express and DPBS to R.T. was warmed in advance.
2. For induction, 1 μg/ml tetracycline (final concentration) was added to cell culture medium and incubated for 48 hours prior to seeding cells into plate at 37° C., 5% (v/v) C02. The cell culture medium was removed from flask. Cells were washed with DPBS.
3. 2 mL TrypLE™ Express was added to the flask, mixed well by gentle shaking and cells were incubated at 37° C. for a few minutes.
4. The cells were checked for morphological change under microscope, the digestion was stopped by adding 4 mL cell culture medium to the flask when most of cells turned to round.
5. The cell suspension was transferred into a 15 mL centrifuge tube, and then centrifuged at 1,200 rpm for 5 minutes.
6. The supernatant was removed. The cell pellet was resuspended with 2 mL cell culture medium.
7. The cell density was counted using cell counter.
9. 30 μL/well cell suspensions added into a 384-well cell plate (The cell density was 20,000 cells/well).
10. The cell plate was incubated overnight at 37° C., 5% (v/v) CO2.
On the day of experiments, culture medium was removed from the cell plate.
10 μL of assay buffer (20 mM HEPES, in 1x HBSS, pH 7.4) was added to each well of the cell plate.
2×dye solution was prepared following the manual of the F LIP R® Calcium 6 Assay Kit: • i. The dye was diluted with assay buffer. • ii. Probenecid was added to the final concentration of 5 mM. • iii. Vortexed vigorously for I-2 minutes.
4. 10 μL of 2x dye solution was added to each well of the cell plate.
5. The cell plate was placed on plate shaker, followed by shaking at 600 rpm for 2 minutes.
6. The plate was incubated at 37° C. for 2 hours followed by an additional 15-minute incubation at 25° C.
1. Serotonin HCl was prepared to the concentration of 10 mM with DMSO.
2. The test compounds were prepared to the concentration of 10 mM with DMSO.
3. The compounds were added to a 384-well compound source plate.
4. 3-folds serial dilutions were performed with DMSO.
5. 90 nL/well of serial diluted compounds was transferred from source plate to a 384-well compound plate by using an Echo.
6. 30 μL/well of assay buffer (20 mM HEPES in 1x HBSS, pH 7.4) was added to the compound plate.
7. The plate was mixed on-plate shaker for 2 minutes.
1. After the cells were incubated with dye solution, the cell plate, compound plate containing 3×compounds and F LIP R tips were placed into F LIP R.
2. 10 μL of 3×compounds transferred from the compound plate to the cell plate by FLIP R.
3. The plate was read for 160 sec with 1 sec interval and the data of agonist mode was obtained.
1. The normalized fluorescence reading (RFU) was calculated as shown below, wherein F max and F min stand for maximum and minimum of calcium signal during defined time window:
2. EC50 by fitting R F U against log of compound concentrations with Hill equation was calculated using XLfit.
The potential excitatory effects of compounds targeting human 5-hydroxytryptamine receptor 2A (5-HT2A) under agonist mode was assessed.
2. For induction, 1 μg/ml tetracycline (final concentration) was added to cell culture medium and incubated for 48 hours prior to seeding cells into plate at 37° C., 5% (v/v) CO2. The cell culture medium was removed from flask. Cells were washed with DPBS.
1. On the day of experiments, culture medium was removed from the cell plate.
2. 10 μL of assay buffer (20 mM HEPES, in 1×HBSS, pH 7.4) was added to each well of the cell plate.

human 5-HT2A receptor [2] = molecular target: T1, human 5-HT2A receptor; experiment: Human 5-HT2A radioligand binding assay ([3H]-ketanserin); parameters: expressed in transfected cells; host or cells: HTR2A&Gα15-HEK293 (tetracycline induction)
Experimental: The objective of this study was to evaluate the binding properties of exemplary compounds of Formula (I) on 5-hydroxytryptamine receptor 2A (5-HT2A).
1. The assay buffer was prepared following Table 13 below.
Adjust pH to 7.4 followed by […] sterile filtration
2. 8 doses of reference and test compounds starting from 10 mM stock solution as required was prepared by 5-fold serial dilutions with 100% (v/v) DMSO.
3. UniFilter-96 GF/B plate was pretreated: • i. 50 μl/well of 0.5% (v/v) PEI was added to UniFilter-96 […] plates. The plates were sealed and incubated at 4° C. for 3 hrs. • ii. After incubation, the plates were washed 3 times with ice-cold wash buffer (50 mM Tris, pH7.4).
4. The assay plate was prepared: • i. Cell membrane was diluted with assay buffer and 330 μl/well was added to 96 round deep well plates to reach a concentration of 20 μg/well. • ii. 8 concentrations of reference or test compounds were prepared and 110 μl/well was added to 96 round deep well plates. • iii. [3H]-ketanserin was diluted with assay buffer to 5 nM (5×final concentration) and 110 μl/well was added to 96 round deep well plates.
5. The plate was centrifuged at 1000 rpm for 30 secs and then agitated at 600 rpm, R.T. for 5 min. […]
7. The incubation was stopped by vacuum filtration onto GF/B filter plates followed by 4 times washing with ice-cold wash buffer (50 mM Tris, pH7.4).
9. The filter plates were sealed and 40 μl/well of scintillation cocktail was added.
10. The plate was read by using a Microbeta^2 microplate counter.
1. For reference and test compounds, the results were expressed as % Inhibition, using the normalization equation: N=100−100×(U-C2)/(C1-C2), where U is the unknown value, C1 is the average of high controls, and C2 is the average of low controls.
2. The IC50 was determined by fitting percentage of inhibition as a function of compound concentrations with Hill equation using XLfit. […]

[3] = FLIPR calcium, agonist mode, HTR2A&Gα15-HEK293 cells (Table 39), read-out: h5-HT2A, EC50
[4] = [3H]-ketanserin displacement (Table 43), read-out: h5-HT2A, IC50

CN(C)CCc1c[nH]c2ccc(OCCOC(F)F)cc12 [Compound I-128, 2-(5-(2-(Difluoromethoxy)ethoxy)-1H-indol-3-yl)-N,N-dimethylethan-1-amine]
pEC50 (human 5-HT2A receptor [1]): 5.92
RFU@10 μM (human 5-HT2A receptor [1]; RFU=Fmax−Fmin (Table 39)): 2,159 RFU
pIC50 (human 5-HT2A receptor [2]): 5.11

[2H]C([2H])([2H])N(CCc1c[nH]c2ccc(SC)cc12)C([2H])([2H])[2H] [Compound I-1, N,N-Bis(methyl-d3)-2-(5-(methylthio)-1H-indol-3-yl)ethan-1-amine]
pEC50 (human 5-HT2A receptor [1]): 7.35
RFU@10 μM (human 5-HT2A receptor [1]; RFU=Fmax−Fmin (Table 9)): 7,177 RFU
pIC50 (human 5-HT2A receptor [2]): 6.41

CSc1ccc2[nH]cc(CCN(C)C(C)C)c2c1 [Compound I-19, N-Methyl-N-(2-(5-(methylthio)-1H-indol-3-yl)ethyl)propan-2-amine]
pEC50 (human 5-HT2A receptor [1]): 7.48
RFU@10 μM (human 5-HT2A receptor [1]; RFU=Fmax−Fmin (Table 9)): 819 RFU
pIC50 (human 5-HT2A receptor [2]): 6.03

COc1ccc2[nH]cc(CCN(C)CCOC(F)F)c2c1 [Compound I-71, 2-(Difluoromethoxy)-N-(2-(5-methoxy-1H-indol-3-yl)ethyl)-N-methylethan-1-amine]
RFU@10 μM (human 5-HT2A receptor [1]; RFU=Fmax−Fmin (Table 39)): 1,094 RFU
pEC50 (human 5-HT2A receptor [1]; [3]): 6.59
pIC50 (human 5-HT2A receptor [2]; [4]): 5.64

CN(C)CCc1c[nH]c2ccccc12 [DMT]
RFU@10 μM (human 5-HT2A receptor [1]; RFU=Fmax−Fmin (Table 9)): 3,493 RFU
RFU@10 μM (human 5-HT2A receptor [1]; RFU=Fmax−Fmin (Table 39)): 3,493 RFU
pEC50 (human 5-HT2A receptor [1]; FLIPR calcium, agonist mode, HTR2A&Gα15-HEK293 cells (Table 9), read-out: h5-HT2A, EC50): 6.79
pEC50 (human 5-HT2A receptor [1]; [3]): 6.79
pIC50 (human 5-HT2A receptor [2]; [3H]-ketanserin displacement (Table 14), read-out: h5-HT2A, IC50): 6.02
pIC50 (human 5-HT2A receptor [2]; [4]): 6.02

CCN(C)CCc1c[nH]c2ccc(SC)cc12 [Compound I-13, N-Ethyl-N-methyl-2-(5-(methylthio)-1H-indol-3-yl)ethan-1-amine]
pEC50 (human 5-HT2A receptor [1]): 7.74
RFU@10 μM (human 5-HT2A receptor [1]; RFU=Fmax−Fmin (Table 9)): 726 RFU
pIC50 (human 5-HT2A receptor [2]): 6.60

CCN(CC)CCc1c[nH]c2ccc(SC)cc12 [Compound I-12, N,N-Diethyl-2-(5-(methylthio)-1H-indol-3-yl)ethan-1-amine]
pEC50 (human 5-HT2A receptor [1]): 7.11
RFU@10 μM (human 5-HT2A receptor [1]; RFU=Fmax−Fmin (Table 9)): 1,041 RFU
pIC50 (human 5-HT2A receptor [2]): 6.11

CSc1ccc2[nH]cc(CCN(C(C)C)C(C)C)c2c1 [Compound I-17, N-Isopropyl-N-(2-(5-(methylthio)-1H-indol-3-yl)ethyl)propan-2-amine]
pEC50 (human 5-HT2A receptor [1]): 7.43
RFU@10 μM (human 5-HT2A receptor [1]; RFU=Fmax−Fmin (Table 9)): 8,546 RFU
pIC50 (human 5-HT2A receptor [2]): 5.70

COc1ccc2[nH]cc(CCN3CC[C@H](OC(F)F)C3)c2c1 [(S) I-67, (S)-3-(2-(3-(Difluoromethoxy)pyrrolidin-1-yl)ethyl)-5-methoxy-1H-indole]
pEC50 (human 5-HT2A receptor [1]): 6.00
RFU@10 μM (human 5-HT2A receptor [1]; RFU=Fmax−Fmin (Table 39)): 2,147 RFU
pIC50 (human 5-HT2A receptor [2]): 5.31

COc1ccc2[nH]cc(CCN3CC[C@@H](OC)C3)c2c1 [(R) I-66, (R)-5-methoxy-3-(2-(3-methoxypyrrolidin-1-yl)ethyl)-1H-indole]
RFU@10 μM (human 5-HT2A receptor [1]; RFU=Fmax−Fmin (Table 39)): 752 RFU
pIC50 (human 5-HT2A receptor [2]): 5.37

CN(CCOC(F)F)CCc1c[nH]c2ccccc12 [Compound I-130, N-(2-(1H-Indol-3-yl)ethyl)-2-(difluoromethoxy)-N-methylethan-1-amine]
RFU@10 μM (human 5-HT2A receptor [1]; RFU=Fmax−Fmin (Table 39)): 247 RFU
pIC50 (human 5-HT2A receptor [2]; [4]): 5.25

COc1ccc2[nH]cc(CCN3CC[C@@H](OC(F)F)C3)c2c1 [(R) I-67, (R)-3-(2-(3-(Difluoromethoxy)pyrrolidin-1-yl)ethyl)-5-methoxy-1H-indole]
RFU@10 μM (human 5-HT2A receptor [1]; RFU=Fmax−Fmin (Table 39)): 225 RFU
pIC50 (human 5-HT2A receptor [2]): 5.39
